IC50 data for 7 molecules are collected here from patent US7932390B2, “Substituted thieno[3,2-C]pyridine carboxylic acid derivatives” (Hoffman-La Roche Inc., priority 2006, dated 2011).

The structures appear in SMILES notation. Where a name gives a salt, the structure may show the parent alone.

What all share (format): biochemical
The target in assay [1] is T1, b-Raf Wild-Type (Homo sapiens, UniProt P15056).
T1 construct: recombinant human b-Raf residues 416-end; purchased Upstate 14-530M; host or cells: baculovirus, Sf21 insect cells
T1 sequence (P15056 416-766 limits assumed): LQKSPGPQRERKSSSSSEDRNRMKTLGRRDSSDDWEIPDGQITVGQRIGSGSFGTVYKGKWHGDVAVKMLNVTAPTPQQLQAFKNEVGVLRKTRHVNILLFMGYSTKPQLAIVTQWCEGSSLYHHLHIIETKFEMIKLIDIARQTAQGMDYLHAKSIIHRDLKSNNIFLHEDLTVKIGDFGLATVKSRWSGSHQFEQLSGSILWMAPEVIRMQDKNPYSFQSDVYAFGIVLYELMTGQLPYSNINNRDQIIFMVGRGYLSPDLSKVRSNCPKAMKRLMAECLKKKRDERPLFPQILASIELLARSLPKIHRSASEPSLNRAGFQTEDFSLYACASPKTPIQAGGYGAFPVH
Put plainly: b-Raf wild-type HTRF assay with 6H-MEK as substrate (dose response). The following applies: recombinant human b-Raf wild-type residues 416-end, GST-tag. How it is done:
(§1) Kinase Enzyme Inhibition Assay (IC50)
b-Raf Wild-Type HTRF Assay with 6H-MEK as Substrate (Dose Response)
The assay utilizes 6H-MEK as the substrate. Upon b-Raf WT phosphorylation, phosphorylated 6H-MEK is detected with rabbit anti-phospho-MEK1/2, Eu-labeled anti-rabbit, and APC-labeled anti-6H antibodies.
(§2) Reagents and Instruments:
Enzyme: recombinant human b-Raf residues 416-end with N-terminal GST-tag from Upstate; (expressed by baculovirus in Sf21 insect cells), 0.26 mg/mL (3.87 μM assuming a molecular weight of 67.2 kD) Cat. #14-530M, Lot #25502AU, stored at −80° C.
Substrate: WT full-length 6H-MEK from C. Belunis (5126104), 4.94 mg/mL (154.4 μM assuming a MW of 32 kD) stored at −15° C.
Antibodies: Rabbit (α-P-(Ser 217/221)-MEK-1/2 Ab (from Cell Signaling, Cat. #9121B, Lot 14); Eu-(α-rabbit IgG (from Wallac, Cat. #AD0083, Lot 318663, 710 ug/mL, 4.4 μM); (α-6H-SureLight-APC (from Martek, Cat. #AD0059H, Lot E012AB01, 3.03 μM).
(§3) Reader: Envision from PerkinElmer, HTRF reading mode with 412 mirror
(§4) Assay Plate Matrix all-black polypropylene plates (Cat. #4344)
(§5) Others: Weidman 384 polypropylene plates (REMP) for compound plate.
(§6) (1) Prepare Kinase Assay Buffer (KAB): 50 mM HEPES (HyClone) pH7, 10 mM MgCl2, 1 mM DTT, 0.1 mM […], and 0.3 mg/ml BSA.
(§7) (2) Prepare 6H-MEK (150 nM) in KAB. Add 12 μl/well to the assay plate.
(§8) (3) Prepare ATP (66 μM) in KAB.
(§9) (4) Dilute compounds to 2.4 mM and any positive controls to 480 μM in DMSO. Perform 10-point 3× dilution in DMSO. Withdraw 2.5 μl/well of DMSO solution and add to 27.5 μl/well ATP solution in (3).
(§10) (5) Mix, then add 6 μl/well of solution in (4) to the assay plate for a DMSO concentration of 2.1% during MEK phosphorylation.
(6) Prepare b-Raf WT ([…]) in KAB.
(7) Add 6 μl/well of KAB in columns 1-2 and 6 μl/well of b-Raf WT in columns 3-24.
(§11) (8) Incubate at 37° C. for 30 min.
(9) Prepare rabbit (α-P-(Ser 217/221)-MEK-1/2 Ab (1:200 from stock) in AB1: 50 mM HEPES pH7, 0.2 mg/ml BSA, and 43 mM EDTA.
(§12) (10) To stop reaction, add 6 μl/well of solution from (9) to the assay plate and incubate at 37° C. for 30 min.
(11) Prepare Eu-(α-rabbit IgG (9 nM) and (α-6H-SureLight-APC (180 nM) in AB2: 50 mM HEPES pH7 and 0.2 mg/ml BSA.
(§13) (12) Add 6 μl/well of solution from (11) to the assay plate.
(§14) (13) For determining the spectrum cross talk factor, prepare 2 samples following steps (1) to (10). For the blank sample, add 6 μl/well of AB2. For the cross talk factor sample, add 6 μl/well of Eu-anti rabbit IgG (9 nM).
(§15) (14) Incubate at room temperature for 1.5 hours.
(§16) (15) Read HTRF signals at 615 nm and 665 nm on the Envision. Normalize HTRF signals after spectrum cross-talk correction.
A general note: TR-FRET usually uses a lanthanide donor and a delayed reading to cut background.

Assay [2] concerns the target T2, b-Raf V600E Mutant (Homo sapiens, UniProt P15056, V600E).
T2 construct: recombinant human b-Raf residues 416-end containing a V600E mutation; purchased Upstate 14-5M; host or cells: baculovirus, Sf21 insect cells
Description: b-Raf V600E mutant HTRF assay with 6H-MEK as substrate (dose response). The settings on record: recombinant human b-Raf residues 416-end with V600E mutation, GST-tag.
From the text: as §1
b-Raf V600E Mutant HTRF Assay with 6H-MEK as Substrate (Dose Response)
The assay utilizes 6H-MEK as the substrate. Upon b-Raf V600E phosphorylation, phosphorylated 6H-MEK is detected with rabbit anti-phospho-MEK1/2, Eu-labeled anti-rabbit, and APC-labeled anti-6H antibodies.
as §2
Enzyme: recombinant human b-Raf residues 416-end containing a V600E mutation with N-terminal GST-tag from Upstate; (expressed by baculovirus in Sf21 insect cells), 0.26 mg/mL ([…] assuming a molecular weight of 67.3 kD) Cat. #14-5M, Lot #25633AU, stored at −80° C.
Substrate: WT full-length 6H-MEK from C. Belunis (May 26, 2004), 4.94 mg/mL (154.4 μM assuming a MW of 32 kD) stored at −15° C.
(§17) Antibodies: Rabbit (α-P-(Ser 217/221)-MEK-1/2 Ab (from Cell Signaling, Cat. #9121B, Lot 14); Eu-(α-rabbit IgG (from Wallac, Cat. # AD0083, Lot 318663, 710 ug/mL, 4.4 μM); (α-6H-SureLight-APC (from Martek, Cat. #AD0059H, Lot E012AB01, 3.03 μM).
as §3, §4, §5, §6, §7, §8
(4) Dilute compounds to 2.4 mM and positive controls to 480 μM in DMSO. Perform 10-point 3× dilution in DMSO. Withdraw 2.5 μl/well of DMSO solution and add to 27.5 μl/well ATP solution in (3).
as §10
(6) Prepare b-Raf V600E ([…]) in KAB.
(7) Add 6 μl/well of KAB in columns 1-2 and 6 μl/well of b-Raf V600E in columns 3-24.
as §11
(9) Prepare rabbit α-P-(Ser 217/221)-MEK-1/2 Ab (1:200 from stock) in AB1: 50 mM HEPES pH7, 0.2 mg/ml BSA, and 43 mM EDTA.
as §12
(11) Prepare Eu-α-rabbit IgG (9 nM) and α-6H-SureLight-APC (180 nM) in AB2: 50 mM HEPES pH7 and 0.2 mg/ml BSA.
as §13, §14, §15, §16

Assay [3] concerns the target T3, c-Raf (Homo sapiens, UniProt P04049).
T3 construct: made in house; host or cells: baculovirus, High-5 (Hi5) insect cells, co-infected with FLAG-vSrc virus
Description: c-Raf HTRF assay with 6H-MEK as substrate (dose response). The settings on record: cloned human c-Raf with EE-tag. The method, then:
as §1
c-Raf HTRF Assay with 6H-MEK as Substrate (Dose Response)
The assay utilizes 6H-MEK as the substrate. Upon c-Raf phosphorylation, phosphorylated 6H-MEK is detected with rabbit anti-phospho-MEK1/2, Eu-labeled anti-rabbit, and APC-labeled anti-6H antibodies.
as §2
Enzyme: cloned human c-Raf with EE-tag; phosphorylated (co-expressed with v-src-FLAG in baculovirus Hi5 cells), 0.2 mg/mL (2.74 μM assuming a molecular weight of 73 kD) stored at −15° C.
Substrate: WT full-length 6H-MEK, 4.94 mg/mL (154.4 μM assuming a MW of 32 kD) stored at −15° C.
as §17, §3, §4, §5, §6, §7, §8, §9, §10
(6) Prepare c-Raf (12 nM) in KAB.
(7) Add 6 μl/well of KAB in columns 1-2 and 6 μl/well of c-Raf in columns 3-24.
as §11
(9) Prepare rabbit (α-P-(Ser 217/221)-MEK-1/2 Ab (1:240 from stock) in AB1: 50 mM HEPES pH7, 0.2 mg/ml BSA, and 43 mM EDTA.
as §12
(11) Prepare Eu-(α-rabbit IgG (9 nM) and (α-6H-SureLight-APC (120 nM) in AB2: 50 mM HEPES pH7 and 0.2 mg/ml BSA.
as §13, §14, §15, §16
Expression and Purification of c-Raf
N terminal EE-tagged c-Raf was expressed in High-5 cells. A five liter culture was co-transfected with virus for EE-c-Raf and FLAG-vSrc at a ratio of 1:2 and harvested after 48 hours. The cell pellet was lysed in TBS containing 5 mM EDTA, 50 mM KF, 20 mM Na pyrophosphate, 20 mM β-glycerolphsphate, 0.5 mM Na VO3, 1% NP-40 (w/v) and Complete Protease Tablets. The lysate was centrifuged at 20,000×g for 1 hour. The supernatant was incubated with 8 ml of anti-EE tag-Protein G Sepharose for 2 hours at 4° C. The resin was then washed with 30 volumes of the above buffer. The c-Raf protein was eluted by incubation with the above buffer containing 100 mg/ml of EE peptide for 1 hour at 4° C. Protein was concentrated using an Amicon Stir Cell with an YM10 membrane. The concentrated protein was dialyzed against TBS containing 1 mM DTT and 30% Glycerol. Protein concentration was determined by the BioRad DC method.
E. coli cells containing the plasmid for the expression of 6H-MEK1 (62-393) were grown in Rich Media and induced with 1 mM IPTG for 24 hours at 22° C. The cell pellet was resuspent in 50 mM potassium phosphate buffer, pH 8.0, 300 mM NaCl, 5 mM MgCl2, 10 mM CHAPS, 2 mM TCEP, and Complete Protease Inhibitor Tablets. Cells were disrupted by sonication. The lysate was cleared by centrifugation at 13,000×g for 45 minutes. […]

T3 sequence (P04049 whole entry): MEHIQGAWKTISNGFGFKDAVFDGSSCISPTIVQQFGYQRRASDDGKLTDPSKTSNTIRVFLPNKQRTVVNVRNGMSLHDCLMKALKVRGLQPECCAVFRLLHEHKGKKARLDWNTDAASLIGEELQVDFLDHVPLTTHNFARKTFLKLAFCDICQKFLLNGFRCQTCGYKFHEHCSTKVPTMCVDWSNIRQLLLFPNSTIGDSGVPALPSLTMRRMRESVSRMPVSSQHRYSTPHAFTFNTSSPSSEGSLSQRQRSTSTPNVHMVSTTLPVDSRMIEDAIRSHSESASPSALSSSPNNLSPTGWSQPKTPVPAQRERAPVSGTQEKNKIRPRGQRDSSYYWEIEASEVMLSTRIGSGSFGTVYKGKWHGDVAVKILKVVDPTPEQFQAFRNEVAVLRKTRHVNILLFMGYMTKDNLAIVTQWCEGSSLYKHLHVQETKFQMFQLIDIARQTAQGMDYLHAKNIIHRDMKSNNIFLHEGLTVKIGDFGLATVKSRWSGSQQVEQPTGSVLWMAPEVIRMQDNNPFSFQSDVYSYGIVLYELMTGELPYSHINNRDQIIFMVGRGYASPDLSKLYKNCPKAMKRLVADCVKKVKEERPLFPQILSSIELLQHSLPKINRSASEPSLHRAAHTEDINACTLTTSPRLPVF
T2 sequence (P15056 416-766 V600E): as the sequence (P15056 416-766 limits assumed) above, with V185E counted along it

`COc1ccc(Cn2nnc(-c3cccc(OCc4csc5c(C(=O)NCCO)cnc(N)c45)c3)n2)cc1` [Example 29, 4-Amino-3-{3-[2-(4-methoxy-benzyl)-2H-tetrazol-5-yl]-phenoxymethyl}-thieno[3,2-c]pyridine-7-carboxylic acid (2-hydroxy-ethyl)-amide]: the IC50 (in general, the point on the concentration scale where inhibition reaches its midpoint) in assay [1] turned out to be 544 nM; in assay [2], 94 nM; in assay [3], 231 nM.
As for `Cc1ccc(-c2cn(C)nn2)cc1OCc1csc2c(C(=O)NCCO)cnc(N)c12` [Example 24, 4-Amino-3-[2-methyl-5-(1-methyl-1H-[1,2,3]triazol-4-yl)-phenoxymethyl]-thieno[3,2-c]pyridine-7-carboxylic acid (2-hydroxy-ethyl)-amide], the IC50 in assay [1] was 45 nM; in assay [2], over 50000 nM; in assay [3], 11.9 nM.
As to `Cc1nnc(-c2cccc(OCc3csc4c(C(=O)NCCO)cnc(N)c34)c2)o1` [Example 10, 4-Amino-3-[3-(5-methyl-[1,3,4]oxadiazol-2-yl)-phenoxymethyl]-thieno[3,2-c]pyridine-7-carboxylic acid (2-hydroxy-ethyl)-amide], the IC50 in assay [1] is 1300 nM; in assay [2], 327 nM; in assay [3], 768 nM.
On the same counts, the results for `Cn1nnc(-c2cccc(OCc3csc4c(C(=O)NCCO)cnc(N)c34)c2)n1` [Example 33, 4-Amino-3-[3-(2-methyl-2H-tetrazol-5-yl)-phenoxymethyl]-thieno[3,2-c]pyridine-7-carboxylic acid (2-hydroxy-ethyl)-amide] are 1680 nM, 258 nM and 341 nM.
As to `Cc1ccc(-c2nnc(-c3ccc(Cl)cc3)o2)cc1OCc1csc2c(C(=O)NCCO)cnc(N)c12` [Example 49, 4-Amino-3-{5-[5-(4-chloro-phenyl)-[1,3,4]oxadiazol-2-yl]-2-methyl-phenoxy-methyl}-thieno[3,2-c]pyridine-7-carboxylic acid (2-hydroxy-ethyl)-amide trifluoroacetic acid salt], the results for the IC50 in assay [1], in assay [2] and in assay [3] were 5140 nM, 920 nM and 17 nM, respectively.
Take `CCOC(=O)c1cnc(N)c2c(COc3cccc(-c4nnc(C)o4)c3)csc12` [Example 9, 4-Amino-3-[3-(5-methyl-[1,3,4]oxadiazol-2-yl)-phenoxymethyl]-thieno[3,2-c]pyridine-7-carboxylic acid ethyl ester]: the IC50 in assay [1] worked out at 12700 nM; in assay [2] it was 997 nM; in assay [3], 5420 nM.
Take `Cc1nnc(-c2ccc(C)c(OCc3csc4c(C(=O)NCCO)cnc(N)c34)c2)o1` [Example 14, 4-Amino-3-[2-methyl-5-(5-methyl-[1,3,4]oxadiazol-2-yl)-phenoxymethyl]-thieno[3,2-c]pyridine-7-carboxylic acid (2-hydroxy-ethyl)-amide trifluoro-acetic acid salt]: the results for the IC50 in assay [1], in assay [2] and in assay [3] were 117 nM, 17 nM and 41 nM, respectively.
